Data from patent US11491228B2, “Hydrogels and uses thereof” (Massachusetts Institute of Technology, priority 2018, dated 2022).

Assay: Release of taxanes from PEG alkynoate-TREN (beta-aminoacrylate) gel into PBS, HPLC
Assay type: physicochemical
Conditions: 37° C.
Procedure: Samples were stored at +4° C. […] The wavelength of detection was 227 nm. Phases were A: water, B: MeCN.

Concentrations of taxane following release from PEG alkynoate-TREN gels (1 h, average): 39.29 ng/mL
Concentrations of taxane following release from PEG alkynoate-TREN gels (1 h, replicate A): -152.3 ng/mL
Concentrations of taxane following release from PEG alkynoate-TREN gels (1 h, replicate B): 422.4 ng/mL
Concentrations of taxane following release from PEG alkynoate-TREN gels (1 h, replicate C): -152.3 ng/mL
Concentrations of taxane following release from PEG alkynoate-TREN gels (2 h, average): 201.4 ng/mL
Concentrations of taxane following release from PEG alkynoate-TREN gels (2 h, replicate A): -152.3 ng/mL
Concentrations of taxane following release from PEG alkynoate-TREN gels (2 h, replicate B): 555 ng/mL
Concentrations of taxane following release from PEG alkynoate-TREN gels (2 h, replicate C): 201.4 ng/mL
Concentrations of taxane following release from PEG alkynoate-TREN gels (5 h, average): 363.5 ng/mL
Concentrations of taxane following release from PEG alkynoate-TREN gels (5 h, replicate A): 1041 ng/mL
Concentrations of taxane following release from PEG alkynoate-TREN gels (5 h, replicate B): 201.4 ng/mL
Concentrations of taxane following release from PEG alkynoate-TREN gels (5 h, replicate C): -152.3 ng/mL
Concentrations of taxane following release from PEG alkynoate-TREN gels (20 h, average): 267.7 ng/mL
Concentrations of taxane following release from PEG alkynoate-TREN gels (20 h, replicate A): 643.4 ng/mL
Concentrations of taxane following release from PEG alkynoate-TREN gels (20 h, replicate B): 311.9 ng/mL
Concentrations of taxane following release from PEG alkynoate-TREN gels (20 h, replicate C): -152.3 ng/mL
Concentrations of taxane following release from PEG alkynoate-TREN gels (48 h, average): 1127.9 ng/mL
Concentrations of taxane following release from PEG alkynoate-TREN gels (48 h, replicate A): 984.7 ng/mL
Concentrations of taxane following release from PEG alkynoate-TREN gels (48 h, replicate B): 1003 ng/mL
Concentrations of taxane following release from PEG alkynoate-TREN gels (48 h, replicate C): 1396 ng/mL
% released from PEG alkynoate-TREN gels (Table 3, 1 h, average): 0.05239%
% released from PEG alkynoate-TREN gels (Table 3, 1 h, replicate A): −0.203%
% released from PEG alkynoate-TREN gels (Table 3, 1 h, replicate B): 0.5632%
% released from PEG alkynoate-TREN gels (Table 3, 1 h, replicate C): −0.203%
% released from PEG alkynoate-TREN gels (Table 3, 2 h, average): 0.2685%
% released from PEG alkynoate-TREN gels (Table 3, 2 h, replicate A): −0.203%
% released from PEG alkynoate-TREN gels (Table 3, 2 h, replicate B): 0.74%
% released from PEG alkynoate-TREN gels (Table 3, 2 h, replicate C): 0.2685%
% released from PEG alkynoate-TREN gels (Table 3, 5 h, average): 0.4846%
% released from PEG alkynoate-TREN gels (Table 3, 5 h, replicate A): 1.388%
% released from PEG alkynoate-TREN gels (Table 3, 5 h, replicate B): 0.2685%
% released from PEG alkynoate-TREN gels (Table 3, 5 h, replicate C): −0.203%
% released from PEG alkynoate-TREN gels (Table 3, 20 h, average): 0.3569%
% released from PEG alkynoate-TREN gels (Table 3, 20 h, replicate A): 0.8579%
% released from PEG alkynoate-TREN gels (Table 3, 20 h, replicate B): 0.4158%
% released from PEG alkynoate-TREN gels (Table 3, 20 h, replicate C): −0.203%
% released from PEG alkynoate-TREN gels (Table 3, 48 h, average): 1.504%
% released from PEG alkynoate-TREN gels (Table 3, 48 h, replicate A): 1.3129%
% released from PEG alkynoate-TREN gels (Table 3, 48 h, replicate B): 1.337%
% released from PEG alkynoate-TREN gels (Table 3, 48 h, replicate C): 1.862%
% released from PEG alkynoate-TREN gels (Table 4, 1 h, average): 2.074%
% released from PEG alkynoate-TREN gels (Table 4, 1 h, replicate A): 2.465%
% released from PEG alkynoate-TREN gels (Table 4, 1 h, replicate B): 2.016%
% released from PEG alkynoate-TREN gels (Table 4, 1 h, replicate C): 1.741%
% released from PEG alkynoate-TREN gels (Table 4, 6 h, average): 4.82%
% released from PEG alkynoate-TREN gels (Table 4, 6 h, replicate A): 6.195%
% released from PEG alkynoate-TREN gels (Table 4, 6 h, replicate B): 4.946%
% released from PEG alkynoate-TREN gels (Table 4, 6 h, replicate C): 3.318%
% released from PEG alkynoate-TREN gels (Table 4, 24 h, average): 7.196%
% released from PEG alkynoate-TREN gels (Table 4, 24 h, replicate A): 11.23%
% released from PEG alkynoate-TREN gels (Table 4, 24 h, replicate B): 7.325%
% released from PEG alkynoate-TREN gels (Table 4, 24 h, replicate C): 3.032%
% released from PEG alkynoate-TREN gels (Table 4, 96 h, average): 12.3%
% released from PEG alkynoate-TREN gels (Table 4, 96 h, replicate A): 8.246%
% released from PEG alkynoate-TREN gels (Table 4, 96 h, replicate B): 9.349%
% released from PEG alkynoate-TREN gels (Table 4, 96 h, replicate C): 19.32%
SMILES: CC(=O)O[C@@]12CO[C@@H]1C[C@H](O)[C@@]1(C)C(=O)[C@H](O)C3=C(C)[C@@H](OC(=O)[C@H](O)[C@@H](NC(=O)OC(C)(C)C)c4ccccc4)C[C@@](O)([C@@H](OC(=O)c4ccccc4)[C@H]21)C3(C)C [Docetaxel, docetaxel]
